From US7029680B1, “Delivery of immunogenic molecules vis HBsAg particles” (Yissum Research Development Company of the Hebrew …, priority 1998, dated 2006) come the findings set out here.

The subject of experiment [1] is OVA-specific cells (EG7). Kind of experiment: Anti-OVA CTL response, 51Cr release cytolytic assay after immunization. Conditions: F1 (H-2d/b) mice; lysis of EG7 vs EL4; FIG. 4B. It counts as in vivo.
Method: (§1) OVA/HBsAg particles, prepared as described above, were isolated, washed, and adjusted to the appropriate concentration for immunization. The following compositions were injected into F1 (H-2d/b) mice, each in 50 μl PBS (phosphate buffered saline): (a) 1 μg HBsAg particles (without adjuvants); (b) 100 μg native OVA; and (c) 1 μg HBsAg/OVA, as described in Section A above.
(§2) For evaluation of the CTL response, spleen or lymph nodes cells, obtained from immunized mice seven days to five weeks post-vaccination, were specifically restimulated in vitro for five days with syngeneic, irradiated OVA- or HBsAg-peptide-pulsed tumor cells. (The latter cells had been incubated in vitro with the recombinant HBsAg particles for 2 hours at 37° C.) The cells were harvested and tested in a 4-hour ^51Cr release cytolytic assay against antigen-bearing and non-antigen-bearing syngeneic targets. Lysis of cells specific for the HBsAg S protein (P815/S), or for OVA (EG7), was compared to that for nonspecific cells (P815 or EL4, respectively). The EG7 cells are EL4 cells which have been stably transfected with an expression plasmid encoding OVA.
Experiment [2] has as its system OVA. Kind of experiment: Anti-OVA humoral (serum antibody) response after immunization. Type of experiment: in vivo. Conditions: F1 (H-2d/b) mice, FIG. 4D.
Method: as §1, §2
The subject of experiment [3] is EL4 cells which had been pulsed with HBsAg. Kind of experiment: Anti-HBsAg CTL response in 'nonresponder' mice, 51Cr release assay. Type of experiment: in vivo, 'nonresponder' mice (H-2^b C57BL/6). The settings on record: nonresponder C57BL/6 mice; splenocytes restimulated with HBsAg-pulsed RBL5 cells; FIG. 6A-G. The method, then: To produce the data shown in FIG. 6, several cytokines were loaded into HBsAg particles, following a protocol such as outlined above for OVA, with incubation carried out at 45° C. It was estimated that approximately 10 ng of cytokine was incorporated per μg of HBsAg particles (about 1% incorporation) at this temperature. Groups of ‘nonresponder’ mice (H-2^b C57BL/6) were immunized with HBsAg particles, with and without incorporated cytokines, or with cytokine alone (FIG. 6G), in the amounts shown below: • A: 1 μg ‘naked’ HBsAg particles • B–F: 1 μg HBsAg/cytokine, where the cytokine was: • (b) IL-12, (c) IFN-γ, (d) IL-2, (e) IL-4, • (f) IL-1 β peptide • G: 1 μg IL-12 (control) • H: 1 μg HBsAg/IL-12
After 12 days, splenocytes from the immunized mice were restimulated in vitro for 5 days with HBsAg-pulsed, syngeneic irradiated RBL5 lymphoma cells. For control experiment H, the splenocytes were restimulated with non-pulsed, syngeneic RBL5 cells. The splenocytes (effector cells) were then cocultured with ^51Cr-labeled target cells, and the CTL response was measured by a standard ^51Cr release assay. The target cells were either non-pulsed EL4 cells (open circles in FIGS. 6A–G), or EL4 cells which had been pulsed with HBsAg (solid circles).

For the molecule “ovalbumin [OVA alone, native ovalbumin protein, model antigen]”, in experiment [1], the “anti-OVA CTL response” value is “no CTL response and none”. In experiment [2], the anti-OVA humoral response entry is “elicited a humoral response”.

B1: IL-12 alone: cytokine IL-12 without HBsAg (control) (protein, UniProt P29459 23-219; P29460 23-328, looked up)
Interleukin-12 subunit alpha: RNLPVATPDPGMFPCLHHSQNLLRAVSNMLQKARQTLEFYPCTSEEIDHEDITKDKTSTVEACLPLELTKNESCLNSRETSFITNGSCLASRKTSFMMALCLSSIYEDLKMYQVEFKTMNAKLLMDPKRQIFLDQNMLAVIDELMQALNFNSETVPQKSSLEEPDFYKTKIKLCILLHAFRIRAVTIDRVMSYLNAS
Interleukin-12 subunit beta: IWELKKDVYVVELDWYPDAPGEMVVLTCDTPEEDGITWTLDQSSEVLGSGKTLTIQVKEFGDAGQYTCHKGGEVLSHSLLLLHKKEDGIWSTDILKDQKEPKNKTFLRCEAKNYSGRFTCWWLTTISTDLTFSVKSSRGSSDPQGVTCGAATLSAERVRGDNKEYEYSVECQEDSACPAAEESLPIEVMVDAVHKLKYENYTSSFFIRDIIKPDPPKNLQLKPLKNSRQVEVSWEYPDTWSTPHSYFSLTFCVQVQGKSKREKKDRVFTDKTSATVICRKNASISVRAQDRYYSSSWSEWASVPCS
B1: the “anti-HBsAg CTL response” value in experiment [3] is listed as “no CTL response”.
